Laboratory results from patent publication US9717775B2 (priority 2006, dated 2017).

Key:
α1β1δε nAChR (muscle) = α1β1δε nAChR (muscle) (Homo sapiens, UniProt P02708+P11230+Q04844+Q07001); format: cell-based
α9α10 nAChR = α9α10 nAChR (Rattus norvegicus, UniProt P43144+Q9JLB5); format: cell-based
[1] = tested on: CCI-induced mechanical hypersensitivity; design: species or system male Sprague-Dawley rats; conditions: rat, in vivo

Sequence of α9α10 nAChR (P43144 26-479 limits assumed): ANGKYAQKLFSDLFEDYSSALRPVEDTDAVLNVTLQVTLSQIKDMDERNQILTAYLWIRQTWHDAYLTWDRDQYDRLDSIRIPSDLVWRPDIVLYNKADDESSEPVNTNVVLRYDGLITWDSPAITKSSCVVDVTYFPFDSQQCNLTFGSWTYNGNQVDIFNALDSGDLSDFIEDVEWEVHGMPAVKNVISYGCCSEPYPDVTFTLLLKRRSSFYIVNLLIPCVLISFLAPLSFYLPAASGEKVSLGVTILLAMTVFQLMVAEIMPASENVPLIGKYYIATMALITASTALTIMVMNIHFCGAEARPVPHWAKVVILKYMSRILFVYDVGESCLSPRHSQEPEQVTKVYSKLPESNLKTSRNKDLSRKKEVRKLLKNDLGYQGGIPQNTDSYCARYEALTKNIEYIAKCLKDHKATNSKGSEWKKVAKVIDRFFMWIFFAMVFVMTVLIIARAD
Sequence of α9α10 nAChR (Q9JLB5 25-447 limits assumed): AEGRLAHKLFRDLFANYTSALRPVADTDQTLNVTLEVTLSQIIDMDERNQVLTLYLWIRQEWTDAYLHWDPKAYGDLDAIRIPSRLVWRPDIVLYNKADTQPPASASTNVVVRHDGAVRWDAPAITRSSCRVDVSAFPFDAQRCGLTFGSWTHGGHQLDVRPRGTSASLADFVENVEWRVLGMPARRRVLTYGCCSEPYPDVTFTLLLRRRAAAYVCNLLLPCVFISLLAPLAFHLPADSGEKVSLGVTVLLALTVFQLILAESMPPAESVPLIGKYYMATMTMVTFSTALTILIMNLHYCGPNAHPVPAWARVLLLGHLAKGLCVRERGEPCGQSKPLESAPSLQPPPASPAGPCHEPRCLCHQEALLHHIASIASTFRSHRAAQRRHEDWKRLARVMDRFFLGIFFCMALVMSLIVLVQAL
Sequence of α1β1δε nAChR (muscle) (P02708 21-457 limits assumed): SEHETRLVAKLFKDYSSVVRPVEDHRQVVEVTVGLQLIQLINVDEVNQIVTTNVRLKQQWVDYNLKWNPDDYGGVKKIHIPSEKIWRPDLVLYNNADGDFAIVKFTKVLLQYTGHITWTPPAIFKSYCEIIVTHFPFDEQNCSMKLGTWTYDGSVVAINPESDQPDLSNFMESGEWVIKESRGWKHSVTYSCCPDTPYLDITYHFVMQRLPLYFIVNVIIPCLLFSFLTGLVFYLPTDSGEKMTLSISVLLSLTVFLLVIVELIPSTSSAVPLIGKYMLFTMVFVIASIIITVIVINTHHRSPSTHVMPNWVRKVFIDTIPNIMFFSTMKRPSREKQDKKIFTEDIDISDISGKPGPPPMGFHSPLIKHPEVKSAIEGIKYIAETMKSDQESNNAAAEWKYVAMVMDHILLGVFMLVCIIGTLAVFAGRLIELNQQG
Sequence of α1β1δε nAChR (muscle) (P11230 24-501 limits assumed): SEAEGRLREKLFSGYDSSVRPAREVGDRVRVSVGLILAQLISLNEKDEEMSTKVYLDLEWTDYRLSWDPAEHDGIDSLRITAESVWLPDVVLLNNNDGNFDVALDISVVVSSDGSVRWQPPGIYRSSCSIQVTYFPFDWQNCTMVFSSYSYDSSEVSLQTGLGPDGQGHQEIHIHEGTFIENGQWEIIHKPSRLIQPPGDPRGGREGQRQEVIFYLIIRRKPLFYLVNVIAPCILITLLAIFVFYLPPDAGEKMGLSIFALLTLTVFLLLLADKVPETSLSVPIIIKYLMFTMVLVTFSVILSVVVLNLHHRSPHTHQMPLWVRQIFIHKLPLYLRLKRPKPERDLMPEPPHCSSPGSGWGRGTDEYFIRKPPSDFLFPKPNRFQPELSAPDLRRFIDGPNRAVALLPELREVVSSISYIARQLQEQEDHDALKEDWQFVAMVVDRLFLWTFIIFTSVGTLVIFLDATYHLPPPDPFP
Sequence of α1β1δε nAChR (muscle) (Q07001 22-517 limits assumed): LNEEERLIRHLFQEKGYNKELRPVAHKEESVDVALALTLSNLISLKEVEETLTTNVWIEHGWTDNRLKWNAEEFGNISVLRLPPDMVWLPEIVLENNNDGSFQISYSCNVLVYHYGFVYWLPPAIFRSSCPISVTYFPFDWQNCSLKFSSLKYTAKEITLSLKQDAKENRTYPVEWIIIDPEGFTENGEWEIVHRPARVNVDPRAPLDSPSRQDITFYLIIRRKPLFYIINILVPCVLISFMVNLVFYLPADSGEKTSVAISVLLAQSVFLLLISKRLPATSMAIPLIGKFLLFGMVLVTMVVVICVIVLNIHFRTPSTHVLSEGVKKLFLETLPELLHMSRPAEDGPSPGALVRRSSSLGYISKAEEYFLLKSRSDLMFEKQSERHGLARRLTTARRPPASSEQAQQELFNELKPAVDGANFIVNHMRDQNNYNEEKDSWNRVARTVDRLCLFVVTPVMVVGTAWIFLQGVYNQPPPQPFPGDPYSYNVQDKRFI
Sequence of α1β1δε nAChR (muscle) (Q04844 21-493 limits assumed): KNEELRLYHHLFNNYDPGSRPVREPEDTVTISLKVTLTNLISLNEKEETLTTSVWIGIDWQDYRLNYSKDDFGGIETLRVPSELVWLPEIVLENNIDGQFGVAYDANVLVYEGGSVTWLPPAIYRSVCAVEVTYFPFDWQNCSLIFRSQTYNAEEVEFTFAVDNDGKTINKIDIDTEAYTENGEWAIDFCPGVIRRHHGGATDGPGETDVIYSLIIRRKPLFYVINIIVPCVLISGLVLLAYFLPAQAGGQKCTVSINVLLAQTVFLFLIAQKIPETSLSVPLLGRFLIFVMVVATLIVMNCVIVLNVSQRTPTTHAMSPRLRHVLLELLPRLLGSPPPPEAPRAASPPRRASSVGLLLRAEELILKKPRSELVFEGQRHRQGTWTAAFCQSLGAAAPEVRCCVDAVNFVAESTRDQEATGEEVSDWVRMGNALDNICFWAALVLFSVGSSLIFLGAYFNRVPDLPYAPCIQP

## α-conotoxin RgIA
α1β1δε nAChR (muscle)
  Hill slope: 0.931±0.40
  IC50: 16.1 µM
α9α10 nAChR
  Hill slope: 1.13±0.11
  IC50: 0.0048 µM
[1]
  increase of paw withdrawal thresholds ipsilateral to sciatic nerve ligation: 65±17%
  time to significant increase of PWT ipsilateral to CCI: 3 to 4 h
